Laboratory results from BigSolDB 2.1.

O=C(O)CCCCCC(=O)O
solubility (mole fraction) (in THF, 298.95 K): 0.191
solubility (mole fraction) (in THF, 300.55 K): 0.198
solubility (mole fraction) (in THF, 302.15 K): 0.204
solubility (mole fraction) (in THF, 303.65 K): 0.211
solubility (mole fraction) (in THF, 305.15 K): 0.218
solubility (mole fraction) (in THF, 307.95 K): 0.231
solubility (mole fraction) (in THF, 309.05 K): 0.235
solubility (mole fraction) (in THF, 311.75 K): 0.25
solubility (mole fraction) (in THF, 313.75 K): 0.259
solubility (mole fraction) (in THF, 315.75 K): 0.271
solubility (mole fraction) (in THF, 317.75 K): 0.282
solubility (mole fraction) (in THF, 320.25 K): 0.296
solubility (mole fraction) (in THF, 321.65 K): 0.306
solubility (mole fraction) (in THF, 323.05 K): 0.316
solubility (mole fraction) (in diethyl ether, 278.95 K): 0.0091
solubility (mole fraction) (in diethyl ether, 281.95 K): 0.0102
solubility (mole fraction) (in diethyl ether, 284.65 K): 0.0112
solubility (mole fraction) (in diethyl ether, 287.05 K): 0.0122
solubility (mole fraction) (in diethyl ether, 290.05 K): 0.0137
solubility (mole fraction) (in diethyl ether, 292.95 K): 0.0152
solubility (mole fraction) (in diethyl ether, 294.75 K): 0.0165
solubility (mole fraction) (in diethyl ether, 296.35 K): 0.018
solubility (mole fraction) (in diethyl ether, 299.15 K): 0.0199
solubility (mole fraction) (in diethyl ether, 301.55 K): 0.0222
solubility (mole fraction) (in ethanol, 298.45 K): 0.121
solubility (mole fraction) (in ethanol, 301.45 K): 0.131
solubility (mole fraction) (in ethanol, 304.25 K): 0.144
solubility (mole fraction) (in ethanol, 305.75 K): 0.151
solubility (mole fraction) (in ethanol, 307.55 K): 0.158
solubility (mole fraction) (in ethanol, 310.25 K): 0.172
solubility (mole fraction) (in ethanol, 312.15 K): 0.187
solubility (mole fraction) (in ethanol, 314.85 K): 0.202
solubility (mole fraction) (in ethanol, 316.25 K): 0.206
solubility (mole fraction) (in ethanol, 317.95 K): 0.219
solubility (mole fraction) (in ethanol, 320.95 K): 0.235
solubility (mole fraction) (in ethanol, 323.55 K): 0.248
solubility (mole fraction) (in ethanol, 325.65 K): 0.267
solubility (mole fraction) (in ethanol, 327.55 K): 0.281
solubility (mole fraction) (in ethanol, 329.25 K): 0.294
solubility (mole fraction) (in methanol, 300.75 K): 0.142
solubility (mole fraction) (in methanol, 302.65 K): 0.152
solubility (mole fraction) (in methanol, 304.15 K): 0.159
solubility (mole fraction) (in methanol, 305.95 K): 0.171
solubility (mole fraction) (in methanol, 307.65 K): 0.18
solubility (mole fraction) (in methanol, 310.05 K): 0.187
solubility (mole fraction) (in methanol, 312.65 K): 0.205
solubility (mole fraction) (in methanol, 314.85 K): 0.218
solubility (mole fraction) (in methanol, 317.85 K): 0.246
solubility (mole fraction) (in methanol, 321.35 K): 0.27
solubility (mole fraction) (in methanol, 323.75 K): 0.293
solubility (mole fraction) (in methanol, 325.55 K): 0.309
solubility (mole fraction) (in methanol, 327.15 K): 0.324
solubility (mole fraction) (in methanol, 328.75 K): 0.342
